Assay results reported in ChEMBL document CHEMBL1201862, “PubChem BioAssay data set” (2004).
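Growth conditions: 96-well plates. Treatment: test compound, 48 hours, 5 concentrations. Analysis: linear interpolation between bracketing concentrations; unreached endpoints set to highest concentration. GI50: concentration for 50% inhibition of growth.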 Calls of active or inactive are those of the source. No stated cut-off is given here; in the data, active = GI50 up to about 1.1 µM and inactive = higher.

Tests used:
Assay in all cases: growth of human tumour cells (NCI), 48 h
BT-549 = tested on: BT-549
CAKI-1 = tested on: CAKI-1
COLO 205 = tested on: COLO 205
DU-145 = tested on: DU-145
HCC 2998 = tested on: HCC 2998
HOP-62 = tested on: HOP-62
K562 = tested on: K562
LOX IMVI = tested on: LOX IMVI
MDA-MB-231 = tested on: MDA-MB-231
MDA-MB-435 = tested on: MDA-MB-435
NCI-H226 = tested on: NCI-H226
NCI/ADR-RES = tested on: NCI/ADR-RES
OVCAR-5 = tested on: OVCAR-5
RXF 393 = tested on: RXF 393
SK-MEL-2 = tested on: SK-MEL-2
SNB-19 = tested on: SNB-19
T47D = tested on: T47D
U-251 = tested on: U-251
UACC-62 = tested on: UACC-62
SR = tested on: SR

Measured: GI50

O=C(O)C1CCCCN1C(=O)Cc1c[nH]c2ccccc12 (centres undefined)
inactive: BT-549 > 100 µM | CAKI-1 > 100 µM | COLO 205 > 100 µM | DU-145 > 100 µM | HCC 2998 > 100 µM | HOP-62 > 100 µM | K562 > 100 µM | LOX IMVI > 100 µM | MDA-MB-231 29 µM | MDA-MB-435 > 100 µM | NCI-H226 > 100 µM | NCI/ADR-RES > 100 µM | OVCAR-5 > 100 µM | RXF 393 > 100 µM | SK-MEL-2 > 100 µM | SNB-19 > 100 µM | T47D > 100 µM | U-251 > 100 µM | UACC-62 > 100 µM

Cc1ncc([N+](=O)[O-])n1CCNC(=O)CCCn1ccnc1[N+](=O)[O-]
inactive: BT-549 > 100 µM | CAKI-1 > 100 µM | COLO 205 > 100 µM | DU-145 > 100 µM | HCC 2998 > 100 µM | HOP-62 > 100 µM | K562 > 100 µM | LOX IMVI > 100 µM | MDA-MB-231 > 100 µM | MDA-MB-435 > 100 µM | NCI-H226 > 100 µM | OVCAR-5 > 100 µM | RXF 393 > 100 µM | SK-MEL-2 > 100 µM | SNB-19 > 100 µM | SR > 100 µM | T47D > 100 µM | U-251 > 100 µM | UACC-62 > 100 µM

CCOC(=O)Cc1nc2c(N)ncnc2n1C1OC(COC(C)=O)C(OC(C)=O)C1OC(C)=O (centres undefined)
inactive: BT-549 > 100 µM | CAKI-1 > 100 µM | COLO 205 > 100 µM | DU-145 > 100 µM | HCC 2998 > 100 µM | HOP-62 > 100 µM | K562 > 100 µM | LOX IMVI > 100 µM | MDA-MB-231 > 100 µM | MDA-MB-435 > 100 µM | NCI-H226 > 100 µM | NCI/ADR-RES > 100 µM | SNB-19 > 100 µM | SR > 100 µM | T47D > 100 µM | U-251 > 100 µM | UACC-62 > 100 µM

CC(=O)Nn1c(Cc2ccc(Cl)cc2)nn(C)c1=O
inactive: BT-549 > 100 µM | CAKI-1 > 100 µM | COLO 205 > 100 µM | DU-145 > 100 µM | HCC 2998 > 100 µM | HOP-62 > 100 µM | K562 > 100 µM | LOX IMVI > 100 µM | MDA-MB-231 > 100 µM | MDA-MB-435 > 100 µM | NCI-H226 > 100 µM | NCI/ADR-RES > 100 µM | OVCAR-5 > 100 µM | SK-MEL-2 > 100 µM | SNB-19 > 100 µM | SR > 100 µM | T47D > 100 µM | U-251 > 100 µM | UACC-62 > 100 µM

COC(=O)C(Cc1c[nH]c2ccccc12)NP(=O)(O)OCC1OC(n2ccc(N)nc2=O)C(O)C1O (centres undefined)
inactive: BT-549 > 100 µM | CAKI-1 > 100 µM | COLO 205 > 100 µM | DU-145 > 100 µM | HOP-62 > 100 µM | K562 > 100 µM | LOX IMVI > 100 µM | MDA-MB-231 > 100 µM | MDA-MB-435 > 100 µM | NCI-H226 > 100 µM | NCI/ADR-RES > 100 µM | OVCAR-5 > 100 µM | SNB-19 > 100 µM | SR 82.2 µM | T47D > 100 µM | U-251 > 100 µM | UACC-62 85.9 µM

COc1cc(O)c(/C=N/N=C(\N)NO)c(OC)c1
inactive: BT-549 > 10 µM | CAKI-1 > 10 µM | COLO 205 > 10 µM | DU-145 6.24 µM | HCC 2998 > 10 µM | HOP-62 9.93 µM | K562 > 10 µM | LOX IMVI 7.6 µM | MDA-MB-231 > 10 µM | MDA-MB-435 > 10 µM | NCI-H226 5.11 µM | NCI/ADR-RES 5.04 µM | OVCAR-5 > 10 µM | RXF 393 8.3 µM | SK-MEL-2 > 10 µM | SNB-19 > 10 µM | T47D > 10 µM | U-251 > 10 µM | UACC-62 9.71 µM

O=c1[nH]nc(Cc2ccc(Cl)cc2)n1CCO
inactive: BT-549 > 100 µM | CAKI-1 > 100 µM | COLO 205 > 100 µM | DU-145 > 100 µM | HCC 2998 > 100 µM | K562 > 100 µM | LOX IMVI > 100 µM | MDA-MB-231 > 100 µM | MDA-MB-435 > 100 µM | NCI-H226 > 100 µM | NCI/ADR-RES > 100 µM | OVCAR-5 > 100 µM | SK-MEL-2 > 100 µM | SNB-19 > 100 µM | T47D > 100 µM | U-251 > 100 µM | UACC-62 > 100 µM

Oc1[nH]c(Nc2cc(Cl)cc(Cl)c2)nc2ncnc1-2
inactive: BT-549 > 75 µM | CAKI-1 > 75 µM | COLO 205 > 75 µM | DU-145 > 75 µM | HCC 2998 > 75 µM | HOP-62 > 75 µM | K562 > 75 µM | LOX IMVI > 75 µM | MDA-MB-231 > 75 µM | MDA-MB-435 > 75 µM | NCI-H226 > 75 µM | NCI/ADR-RES > 75 µM | OVCAR-5 > 75 µM | RXF 393 > 75 µM | SK-MEL-2 > 75 µM | SNB-19 > 75 µM | T47D > 75 µM | U-251 > 75 µM | UACC-62 > 75 µM

O=c1[nH]c(=O)n(C2OC(CO)C(O)C(F)C2O)cc1F (centres undefined)
inactive: BT-549 > 100 µM | CAKI-1 > 100 µM | COLO 205 > 100 µM | DU-145 > 100 µM | HCC 2998 > 100 µM | K562 > 100 µM | LOX IMVI > 100 µM | MDA-MB-231 > 100 µM | MDA-MB-435 > 100 µM | NCI-H226 > 100 µM | NCI/ADR-RES > 100 µM | OVCAR-5 > 100 µM | SK-MEL-2 > 100 µM | SNB-19 > 100 µM | SR 25.4 µM | T47D > 100 µM | U-251 > 100 µM | UACC-62 > 100 µM

COc1cc(/C=C/C(=O)OC[C@]23O[C@H]2[C@@H](OC2OC(C)C(O)C(O)C2O)C2C=CO[C@@H](OC4OC(CO)C(O)C(O)C4O)C23)ccc1O (some centres undefined)
inactive: BT-549 > 100 µM | COLO 205 > 100 µM | DU-145 > 100 µM | HCC 2998 > 100 µM | HOP-62 > 100 µM | K562 > 100 µM | LOX IMVI > 100 µM | MDA-MB-231 > 100 µM | MDA-MB-435 > 100 µM | NCI-H226 > 100 µM | NCI/ADR-RES > 100 µM | OVCAR-5 > 100 µM | SK-MEL-2 > 100 µM | SNB-19 > 100 µM | SR > 100 µM | T47D > 100 µM | U-251 > 100 µM | UACC-62 > 100 µM

CN1C/C(=C\c2cccs2)C2=NN(C)C(c3cccs3)C2C1 (centres undefined)
inactive: BT-549 > 100 µM | CAKI-1 > 100 µM | COLO 205 > 100 µM | DU-145 > 100 µM | HCC 2998 42.1 µM | HOP-62 > 100 µM | K562 29.3 µM | LOX IMVI > 100 µM | MDA-MB-231 67.9 µM | MDA-MB-435 > 100 µM | NCI-H226 > 100 µM | NCI/ADR-RES > 100 µM | OVCAR-5 > 100 µM | RXF 393 > 100 µM | SK-MEL-2 24 µM | SNB-19 > 100 µM | T47D 44.4 µM | U-251 22.8 µM | UACC-62 > 100 µM

CC(=O)Oc1ccccc1C(=O)Nc1ncc([N+](=O)[O-])s1 [NITAZOXANIDE]
inactive: BT-549 14.4 µM | CAKI-1 26.5 µM | COLO 205 12.7 µM | DU-145 20.1 µM | HCC 2998 13 µM | HOP-62 22.3 µM | K562 55.7 µM | LOX IMVI 21.8 µM | MDA-MB-231 21.8 µM | MDA-MB-435 22.8 µM | NCI-H226 8.83 µM | NCI/ADR-RES 10.3 µM | OVCAR-5 29.9 µM | RXF 393 4.42 µM | SK-MEL-2 16.3 µM | SNB-19 17.9 µM | T47D 13.7 µM | U-251 19.4 µM | UACC-62 4.33 µM

COc1cc(O)cc2oc(-c3ccc(O)cc3)cc(=O)c12
inactive: BT-549 47.1 µM | CAKI-1 64.3 µM | COLO 205 > 100 µM | DU-145 > 100 µM | HOP-62 74.6 µM | K562 > 100 µM | LOX IMVI > 100 µM | MDA-MB-231 > 100 µM | MDA-MB-435 > 100 µM | NCI/ADR-RES > 100 µM | OVCAR-5 > 100 µM | RXF 393 32.7 µM | SK-MEL-2 52.8 µM | SNB-19 > 100 µM | SR 37.8 µM | T47D 50.4 µM | U-251 71.4 µM | UACC-62 83.9 µM

CC(=O)OCCn1c(Cc2ccc(C)cc2)nn(C(C)=O)c1=O
inactive: BT-549 > 100 µM | CAKI-1 > 100 µM | COLO 205 > 100 µM | DU-145 > 100 µM | HCC 2998 > 100 µM | K562 > 100 µM | LOX IMVI > 100 µM | MDA-MB-231 > 100 µM | MDA-MB-435 > 100 µM | NCI-H226 > 100 µM | NCI/ADR-RES > 100 µM | OVCAR-5 > 100 µM | SK-MEL-2 > 100 µM | SNB-19 > 100 µM | T47D > 100 µM | U-251 > 100 µM | UACC-62 > 100 µM

CC1=C(C(=O)NCCCN(CCO)CCO)CC(C(=O)NCCCN(CCO)CCO)=C(C)N1
inactive: BT-549 > 100 µM | CAKI-1 > 100 µM | COLO 205 > 100 µM | DU-145 > 100 µM | HCC 2998 > 100 µM | HOP-62 > 100 µM | K562 > 100 µM | LOX IMVI > 100 µM | MDA-MB-231 40.7 µM | MDA-MB-435 56 µM | NCI-H226 > 100 µM | NCI/ADR-RES > 100 µM | OVCAR-5 > 100 µM | RXF 393 26.4 µM | SK-MEL-2 > 100 µM | SNB-19 66.4 µM | T47D 62.1 µM | U-251 > 100 µM | UACC-62 > 100 µM
